Here are results for 14 compounds from ChEMBL document CHEMBL1201862, “PubChem BioAssay data set” (2004).

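Each compound was tested at five concentrations against cells in 96-well plates for 48 hours. At the GI50, growth is halved.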 Active and inactive are the calls of the source. Cut-off read from the data, not from the text of the source: active = GI50 up to about 1.1 µM and inactive = higher. Bounds are passed on as bounds.

Some test systems named below: HL-60; HOP-62; OVCAR-4; NCI-H460; HCT-15; TK-10; HCC 2998; OVCAR-5; SK-OV-3; SNB-78; OVCAR-3; HOP-18; SF-539; KM12; UACC-257; SF-268.
Common to all, as to test: NCI-60 cell line screen, 48 h

As for `CCOC(=O)C1Cc2c(ccc(OC)c2OC)C(=O)C1N` (centres undefined), the GI50 in the test with HL-60 was > 100 µM (inactive); in the test with HOP-62 it was > 100 µM (inactive); with OVCAR-4 it was 82.2 µM (inactive); in the test with NCI-H460, > 100 µM (inactive); in the test on HCT-15 it was over 100 µM; in the test on TK-10 it was > 100 µM (inactive). The GI50 with HCC 2998 is > 100 µM (inactive); with OVCAR-5 it was > 100 µM (inactive); with SK-OV-3, > 100 µM (inactive); in the test with SNB-78, > 100 µM (inactive); with OVCAR-3, 93.1 µM (inactive); in the test with HOP-18, 97.5 µM (inactive). Further, the GI50 in the test on SF-539, in the test with KM12 and in the test on UACC-257 was > 100 µM (inactive) each time.

Consider `CCCCCCCCCCCCCCC1OC(=O)c2ccccc21` (centres undefined), for which the GI50 in the test on HL-60 was 15.6 µM (inactive); with HOP-62 it was > 100 µM (inactive); in the test on OVCAR-4 it was 66.7 µM (inactive); in the test on SF-268 it was > 100 µM (inactive); with NCI-H460 it was 60.8 µM (inactive); in the test with TK-10, > 100 µM (inactive). Also, the GI50 was 31.7 µM (inactive) with OVCAR-5; > 100 µM (inactive) with SK-OV-3; > 100 µM (inactive) in the test with SNB-78; 79.8 µM (inactive) with OVCAR-3; > 100 µM (inactive) with HOP-18; > 100 µM (inactive) with SF-539. Also, the GI50 in the test on KM12 was 39.1 µM (inactive); in the test with UACC-257 it was 52.7 µM (inactive).

Turning to `OC1C2CCC1C1C3C=CC(C3)C21` (centres undefined), the GI50 in the test with HL-60 was 38.1 µM (inactive); with HOP-62, > 100 µM (inactive); with OVCAR-4 it was > 100 µM (inactive); in the test on SF-268, > 100 µM (inactive); with NCI-H460 it was > 100 µM (inactive); with HCT-15 it was 77.4 µM. Further, the GI50 with TK-10 is > 100 µM (inactive); in the test on OVCAR-5, 63.4 µM (inactive); with SK-OV-3 it was > 100 µM (inactive); in the test with SNB-78 it was > 100 µM (inactive); in the test on OVCAR-3, > 100 µM (inactive); in the test with HOP-18, > 100 µM (inactive). For the same compound, the GI50 is 99.3 µM (inactive) in the test with KM12 and > 100 µM (inactive) with UACC-257.

For `COc1ccc2c(c1)C(=O)Cc1ccccc1CC2`, the GI50 was > 100 µM (inactive) with HL-60; > 100 µM (inactive) in the test on OVCAR-4; > 100 µM (inactive) in the test with SF-268; > 100 µM (inactive) in the test on NCI-H460; over 100 µM in the test on HCT-15; > 100 µM (inactive) with TK-10. For the same compound, the GI50 in the test on HCC 2998, with OVCAR-5, in the test with SK-OV-3, in the test with SNB-78, with OVCAR-3 and in the test with HOP-18 was > 100 µM (inactive) in each case. In addition, the GI50 in the test with SF-539, in the test on KM12 and in the test on UACC-257 was > 100 µM (inactive) throughout.

Turning to `COC(=O)c1c2c(cc3c1CC1(Cc4cc5c(c(C(C)=O)c4C1)CCC5)C3)CCC2` (centres undefined), the GI50 is 11.8 µM (inactive) with HL-60; 42 µM (inactive) with HOP-62; 36.7 µM (inactive) in the test on OVCAR-4; 67.3 µM (inactive) in the test with SF-268; 36.9 µM (inactive) in the test on NCI-H460; > 100 µM (inactive) in the test with TK-10. Moreover, the GI50 in the test on HCC 2998 was > 100 µM (inactive); in the test with OVCAR-5, > 100 µM (inactive); in the test on SNB-78, > 100 µM (inactive); in the test on OVCAR-3 it was > 100 µM (inactive); with HOP-18, > 100 µM (inactive); in the test with SF-539, 34.6 µM (inactive). For the same compound, the GI50 in the test with KM12 is > 100 µM (inactive); with UACC-257, 34.9 µM (inactive).

Regarding `Cc1cc(Cl)ccc1N1C(=O)C(=O)C(c2nc3ccccc3s2)C(=O)C1=O`, the GI50 was > 100 µM (inactive) in the test on HL-60; > 100 µM (inactive) in the test with HOP-62; > 100 µM (inactive) with OVCAR-4; > 100 µM (inactive) in the test with SF-268; > 100 µM (inactive) in the test with NCI-H460; over 100 µM with HCT-15. Besides, the GI50 in the test on TK-10, with OVCAR-5, with SK-OV-3, in the test on SNB-78, in the test on OVCAR-3 and in the test with HOP-18 was > 100 µM (inactive) each time. In addition, the GI50 in the test on SF-539, in the test on KM12 and in the test on UACC-257 was > 100 µM (inactive) in each case.

`CCc1ccccc1NC(=O)C(=O)C1C(=O)N(c2ccccc2)N=C1N` (centres undefined): the GI50 in the test with HL-60 is 72.4 µM (inactive); in the test with HOP-62, > 100 µM (inactive); in the test on OVCAR-4 it was > 100 µM (inactive); in the test on SF-268 it was > 100 µM (inactive); in the test with NCI-H460, > 100 µM (inactive); with HCT-15, over 100 µM. In addition, the GI50 in the test with TK-10, with HCC 2998, in the test with OVCAR-5, in the test on SNB-78, in the test on OVCAR-3 and with HOP-18 was > 100 µM (inactive) in each case. The GI50 in the test with SF-539, with KM12 and in the test on UACC-257 was > 100 µM (inactive) throughout.

With `Clc1ccc(SC(/C=C/NNC2=NN=C(c3ccccc3)C(c3ccccc3)N2)c2ccccc2)cc1` (centres undefined), the GI50 in the test with HL-60 was 14.6 µM (inactive); in the test on HOP-62, 33 µM (inactive); with OVCAR-4, 17.9 µM (inactive); with SF-268, 14.4 µM (inactive); in the test with NCI-H460, 26.2 µM (inactive); in the test with HCT-15, 26.9 µM. Also, the GI50 is 36.5 µM (inactive) with TK-10; 19.7 µM (inactive) in the test with HCC 2998; 33.8 µM (inactive) with OVCAR-5; 68.1 µM (inactive) with SK-OV-3; 32.7 µM (inactive) in the test with SNB-78; 11.8 µM (inactive) with OVCAR-3. In addition, the GI50 in the test on SF-539 was 26.4 µM (inactive); with KM12 it was 21 µM (inactive); with UACC-257 it was 21.7 µM (inactive).

Consider `COC(=O)CCC(=O)N1C/C(=C\c2ccccc2)C(=O)/C(=C/c2ccccc2)C1`, for which the GI50 with HOP-62 was 12.6 µM (inactive); with OVCAR-4 it was 2.03 µM (inactive); in the test on SF-268, 2.28 µM (inactive); in the test on NCI-H460, 2.43 µM (inactive); in the test on HCT-15 it was 0.432 µM; with TK-10, 4.41 µM (inactive). In addition, the GI50 in the test on HCC 2998 was 1.67 µM (inactive); in the test on OVCAR-5, 2.7 µM (inactive); in the test with SK-OV-3, 4.16 µM (inactive); in the test with SNB-78 it was 2.77 µM (inactive); in the test on OVCAR-3 it was 2.31 µM (inactive); with HOP-18 it was 2.34 µM (inactive). For the same compound, the GI50 is 2.94 µM (inactive) with SF-539, 0.807 µM (active) with KM12 and 1.89 µM (inactive) with UACC-257.

Consider `C=C1C(=O)C23[C@H](O)C1CC[C@H]2[C@]12COC3(O)[C@@H](O)[C@@H]1C(C)(C)CC[C@@H]2O`, for which the GI50 is 4.27 µM (inactive) in the test with HL-60; 20.6 µM (inactive) in the test on HOP-62; 18 µM (inactive) in the test with OVCAR-4; 4.76 µM (inactive) with SF-268; 16 µM (inactive) in the test on NCI-H460; 3.33 µM in the test with HCT-15. Also, the GI50 with TK-10 is 17.2 µM (inactive); in the test with HCC 2998 it was 15.8 µM (inactive); in the test with OVCAR-5, 18.5 µM (inactive); with SK-OV-3 it was 17.1 µM (inactive); in the test with SNB-78 it was 3.44 µM (inactive); in the test with OVCAR-3, 14.8 µM (inactive). Also, the GI50 in the test with HOP-18 is 12.2 µM (inactive); in the test with SF-539, 6.98 µM (inactive); in the test with KM12 it was 16.9 µM (inactive); in the test with UACC-257 it was 15.5 µM (inactive).

For `CC1=C(C)CC2(SC1)C(=O)c1ccccc1C2=O`, the GI50 in the test on HL-60 is > 100 µM (inactive); in the test on HOP-62, > 100 µM (inactive); in the test with OVCAR-4, > 100 µM (inactive); with SF-268, > 100 µM (inactive); in the test on NCI-H460, > 100 µM (inactive); in the test on HCT-15 it was over 100 µM. Besides, the GI50 in the test on TK-10, in the test on HCC 2998, with OVCAR-5, in the test on SK-OV-3, in the test on SNB-78 and with HOP-18 was > 100 µM (inactive) throughout. Moreover, the GI50 with SF-539, with KM12 and in the test with UACC-257 was > 100 µM (inactive) each time.

As to `NC(=O)/C=C/C(=O)O`, the GI50 is > 5000 µM (inactive) in the test on HL-60; > 5000 µM (inactive) with HOP-62; > 5000 µM (inactive) in the test with OVCAR-4; > 5000 µM (inactive) in the test with SF-268; > 5000 µM (inactive) with NCI-H460; over 5000 µM in the test on HCT-15. For the same compound, the GI50 in the test on TK-10, with OVCAR-5, in the test with SK-OV-3, in the test on SNB-78, with HOP-18 and with SF-539 was > 5000 µM (inactive) throughout. Moreover, the GI50 in the test with KM12 and in the test with UACC-257 was > 5000 µM (inactive) throughout.

Take `CC(=O)CN(Cc1cc(C)c2c(c1)c1ccccc1n2Cc1ccccc1)S(=O)(=O)c1ccc(C)cc1`: the GI50 with HL-60, in the test with HOP-62, in the test with OVCAR-4, in the test on SF-268, with TK-10 and with HCC 2998 was > 100 µM (inactive) throughout. The GI50 in the test with SK-OV-3, in the test with SNB-78, in the test with OVCAR-3, with HOP-18, in the test with SF-539 and in the test on KM12 was > 100 µM (inactive) each time. In addition, the GI50 in the test with UACC-257 was > 100 µM (inactive).

Regarding `COc1cc2cccc(NC(=O)c3cc(OC)c(OC)c(OC)c3Br)c2cc1OC`, the GI50 in the test with HOP-62 is 17.3 µM (inactive); in the test on OVCAR-4, 9.02 µM (inactive); in the test with SF-268, 18.5 µM (inactive); with NCI-H460, 12.5 µM (inactive); in the test on TK-10, 29.2 µM (inactive); with HCC 2998, 28.8 µM (inactive). For the same compound, the GI50 was 10 µM (inactive) with OVCAR-5; 22.5 µM (inactive) with SK-OV-3; 17.1 µM (inactive) in the test with SNB-78; 13.4 µM (inactive) in the test on OVCAR-3; 20.6 µM (inactive) with HOP-18; 15.4 µM (inactive) in the test with SF-539. Moreover, the GI50 in the test on KM12 was 11.1 µM (inactive); in the test on UACC-257, 3.85 µM (inactive).
